Earlier results in US7514484B2, “Aqueous dispersion of polytetrafluoroethylene and process for its production” (Asahi Glass Company, Limited, priority 2005, dated 2009).
Where two headings read alike, the source gives them in different places.

[1] = additives of Table 3, value of the corresponding acid
[2] = carboxylic acid corresponding to the salt of formula (4)

| Compound | pKa [1] | pKa [2] |
| --- | --- | --- |
| CCCCCCCCCCCC(=O)O.N [(d), ammonium laurate] | 4.6 |  |
| CCCCCCCCCCCC(=O)O [lauric acid] |  | 4.6 |
| O=C(O)C(F)c1ccccc1 (stereo not shown) [fluorophenyl acetic acid] |  | 4.3 |
| ammonium fluorophenyl acetate [(f)] | 4.3 |  |
